One test has as its target Phospholipase A2 (Homo sapiens, UniProt P04054). The class given is functional.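 Further: confirmatory dose-response counterscreen on phospholipase A2, testing hits that came from an ultra-high-throughput screen for ATG4B inhibitors.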
Test [1] in a line: THP-1 cell cytotoxicity, dose response, cytotoxicity control for Vif-APOBEC3G degradation inhibitor project, THP-1 cells (AID 1117359). Type of test: functional. The following applies: Human immunodeficiency virus 1, THP-1.
The target of a further test is Troponin, cardiac muscle (Homo sapiens, UniProt P19429+P45379+P63316). Nature of the test: inhibitors of cardiac thin filament calcium sensitivity, dose response, biochemical, fluorescence, cardiac regulated thin filaments, triplicate IC50 (AID 504742). The class given is protein-complex assay.
The target in test [2] is Dual specificity tyrosine-phosphorylation-regulated kinase 1A (Rattus norvegicus, UniProt Q63470). Type of test: biochemical, Homo sapiens.
The nature of test [3]: HeLa cell cytotoxicity, dose response, cytotoxicity control for MgcRacGAP inhibitor project (AID 624300). The class given is functional.
The target in test [4] is T1, DNA repair protein RAD52 homolog (Homo sapiens, UniProt P43351).
T1 sequence (P43351 whole entry): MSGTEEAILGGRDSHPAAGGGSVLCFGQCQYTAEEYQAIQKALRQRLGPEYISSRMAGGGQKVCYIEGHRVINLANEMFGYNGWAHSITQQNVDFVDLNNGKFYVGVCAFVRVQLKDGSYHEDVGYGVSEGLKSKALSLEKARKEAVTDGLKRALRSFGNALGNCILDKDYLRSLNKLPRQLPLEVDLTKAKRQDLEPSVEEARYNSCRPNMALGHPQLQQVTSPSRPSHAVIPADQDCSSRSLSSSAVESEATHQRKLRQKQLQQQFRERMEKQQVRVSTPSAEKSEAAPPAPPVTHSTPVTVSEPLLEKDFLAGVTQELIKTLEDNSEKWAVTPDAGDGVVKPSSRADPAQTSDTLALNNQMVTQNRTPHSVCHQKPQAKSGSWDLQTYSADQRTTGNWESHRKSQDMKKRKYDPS
The class given is functional, biochemical.

The target of a further test is T2, Cysteine protease ATG4B (Homo sapiens, UniProt Q9Y4P1).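 Further: Fluorescence-based dose-response confirmation assay measuring inhibition of ATG4B activity.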
T2 sequence (Q9Y4P1 whole entry): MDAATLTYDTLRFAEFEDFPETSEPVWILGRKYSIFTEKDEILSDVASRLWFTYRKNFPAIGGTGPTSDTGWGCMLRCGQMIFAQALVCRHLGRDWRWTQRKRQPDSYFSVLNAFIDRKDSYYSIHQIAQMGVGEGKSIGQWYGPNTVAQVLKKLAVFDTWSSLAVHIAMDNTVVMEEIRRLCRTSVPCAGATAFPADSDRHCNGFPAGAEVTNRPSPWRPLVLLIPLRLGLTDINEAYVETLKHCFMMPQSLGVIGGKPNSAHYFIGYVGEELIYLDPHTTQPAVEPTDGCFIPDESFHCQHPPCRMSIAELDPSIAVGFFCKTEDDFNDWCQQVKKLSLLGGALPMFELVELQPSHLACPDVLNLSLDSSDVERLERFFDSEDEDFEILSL
Type of test: functional.

For test [5], the target named is Glutathione-S-transferase (Schistosoma japonicum, UniProt Q26513). Nature of the test: biotin-GST/anti-GST TR-FRET signal inhibitors, dose response, artefact control for Vif-APOBEC3G degradation inhibitor project, biochemical (AID 1117362). Type of test: functional. (In general: In TR-FRET formats the signal depends on donor and acceptor labels being close together.)

In another test the target is Nonstructural protein 1 (Influenza A virus, UniProt Q194T2). Type of test: functional, Influenza A virus (A/California/07/2009(H1N1)).
Test [6] has as its target T3, Rac GTPase-activating protein 1 (Homo sapiens, UniProt Q9H0H5).
T3 sequence (Q9H0H5 whole entry): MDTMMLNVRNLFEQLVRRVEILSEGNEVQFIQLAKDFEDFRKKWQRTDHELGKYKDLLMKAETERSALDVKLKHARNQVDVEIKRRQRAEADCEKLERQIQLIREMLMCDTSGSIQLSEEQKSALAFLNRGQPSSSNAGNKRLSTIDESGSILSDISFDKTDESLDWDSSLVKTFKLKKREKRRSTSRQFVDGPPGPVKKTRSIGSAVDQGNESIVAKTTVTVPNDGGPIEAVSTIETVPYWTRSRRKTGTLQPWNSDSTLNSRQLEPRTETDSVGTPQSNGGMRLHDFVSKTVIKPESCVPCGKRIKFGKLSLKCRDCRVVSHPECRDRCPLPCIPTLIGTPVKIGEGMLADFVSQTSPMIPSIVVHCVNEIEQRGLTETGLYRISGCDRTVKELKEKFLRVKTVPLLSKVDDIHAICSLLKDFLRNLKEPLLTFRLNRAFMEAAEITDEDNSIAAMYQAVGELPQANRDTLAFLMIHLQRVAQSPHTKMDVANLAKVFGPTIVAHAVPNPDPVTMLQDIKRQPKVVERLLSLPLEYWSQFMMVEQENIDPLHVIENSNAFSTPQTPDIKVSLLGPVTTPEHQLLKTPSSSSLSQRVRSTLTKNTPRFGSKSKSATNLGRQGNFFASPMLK
Nature of the test: MgcRacGAP GTPase-activating activity inhibitors, confirmation, biochemical, ADP Hunter fluorescence, primary and confirmatory (AID 624330). The class given is functional.

The target in test [7] is Potassium voltage-gated channel subfamily KQT member 2 (Rattus norvegicus, UniProt O88943). Nature of the test: retigabine-insensitive KCNQ2 potentiators, concentration-response, dose response, cell-based, retigabine-insensitive compounds (AID 2654). Type of test: functional.
Test [8] has as its target G-protein coupled receptor 55 (Homo sapiens, UniProt Q9Y2T6). Nature of the test: GPR55 agonists via beta-arrestin recruitment, primary screen, imaging, U2OS cells, beta-arrestin-GFP redistribution (AID 1961). The class given is functional. (In general: Activated receptors often draw arrestin, which recruitment assays turn into a signal.)
In a further test the target is ORF 73 (Human herpesvirus 8, UniProt O40947). Nature of the test: inhibitors of C-LANA binding to LBS DNA, dose response, biochemical, fluorescence polarization, cherry-picked samples (AID 504725).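 Further: fluorescence polarization of a labeled DNA duplex reporting LANA DNA binding; potency is for inhibitors that block LANA binding to the DNA.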 The arrangement: species or system Human gammaherpesvirus 8. (In general: Polarisation of emitted light reports the rotation of a fluorescent probe.)
The target in test [9] is T4, Histone-lysine N-methyltransferase NSD2 (Homo sapiens, UniProt O96028).
T4 sequence (O96028 whole entry): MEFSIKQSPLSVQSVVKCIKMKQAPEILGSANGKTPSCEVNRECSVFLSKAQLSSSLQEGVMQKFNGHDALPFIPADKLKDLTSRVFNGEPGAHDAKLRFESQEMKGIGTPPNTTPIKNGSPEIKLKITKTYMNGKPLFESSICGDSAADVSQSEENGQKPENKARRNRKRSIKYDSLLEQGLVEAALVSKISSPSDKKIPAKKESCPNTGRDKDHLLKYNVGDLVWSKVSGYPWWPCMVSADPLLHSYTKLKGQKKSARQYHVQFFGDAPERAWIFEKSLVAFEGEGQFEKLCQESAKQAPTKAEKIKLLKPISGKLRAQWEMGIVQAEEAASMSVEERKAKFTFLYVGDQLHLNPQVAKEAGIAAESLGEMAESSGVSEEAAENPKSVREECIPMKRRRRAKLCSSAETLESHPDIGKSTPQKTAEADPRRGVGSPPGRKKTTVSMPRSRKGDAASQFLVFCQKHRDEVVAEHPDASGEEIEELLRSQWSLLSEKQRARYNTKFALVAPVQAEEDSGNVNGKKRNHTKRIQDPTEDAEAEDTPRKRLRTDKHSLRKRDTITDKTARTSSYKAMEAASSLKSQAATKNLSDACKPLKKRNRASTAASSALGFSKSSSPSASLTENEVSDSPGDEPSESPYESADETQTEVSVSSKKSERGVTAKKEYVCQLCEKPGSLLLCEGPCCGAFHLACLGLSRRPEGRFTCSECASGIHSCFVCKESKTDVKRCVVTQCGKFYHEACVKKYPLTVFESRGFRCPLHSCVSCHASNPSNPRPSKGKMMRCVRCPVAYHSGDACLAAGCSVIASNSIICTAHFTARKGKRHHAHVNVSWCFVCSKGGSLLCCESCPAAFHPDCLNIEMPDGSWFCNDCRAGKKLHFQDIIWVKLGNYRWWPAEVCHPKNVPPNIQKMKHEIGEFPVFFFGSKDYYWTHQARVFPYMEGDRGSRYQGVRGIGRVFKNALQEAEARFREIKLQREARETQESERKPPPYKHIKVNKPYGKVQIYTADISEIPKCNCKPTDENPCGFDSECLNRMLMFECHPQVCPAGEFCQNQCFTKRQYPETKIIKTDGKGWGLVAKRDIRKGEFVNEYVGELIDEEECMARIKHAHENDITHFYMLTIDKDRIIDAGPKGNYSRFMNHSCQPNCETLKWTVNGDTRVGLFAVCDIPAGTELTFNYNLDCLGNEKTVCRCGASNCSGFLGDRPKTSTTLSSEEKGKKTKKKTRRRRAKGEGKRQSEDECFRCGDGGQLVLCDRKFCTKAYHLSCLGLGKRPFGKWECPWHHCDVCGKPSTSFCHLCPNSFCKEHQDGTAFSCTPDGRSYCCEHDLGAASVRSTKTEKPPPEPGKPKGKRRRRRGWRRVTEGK
Type of test: biochemical.

The nature of test [10]: cytotoxicity in BJeHLT fibroblasts, dose response, counter-screen for Ras selective lethality project, BJeHLT cells, dry powder (AID 493052). Type of test: functional, cell-based. The following applies: Homo sapiens.
Test [11] is described as follows: cytotoxicity in BJeH fibroblasts, dose response, counter-screen for Ras selective lethality project, BJeH cells, dry powder (AID 493054). Type of test: functional, cell-based.
Test [12] is described as follows: viability loss in HRASV12 DRD fibroblasts, dose response, cell-based, DRD BJ fibroblasts, dry powder (AID 493049). The class given is functional.
Test [13] is described as follows: viability loss in BJeLR (HRASV12) cells, primary screen, Ras selective lethality project, cell-based, Alamar Blue, dry powder (AID 493045). The class given is functional.
The target of test [14] is Glutathione S-transferase omega-1 (Homo sapiens, UniProt P78417). Nature of the test: GSTO1 inhibitor potency, recombinant enzyme, late-stage follow-up, biochemical, SE-Rh probe, in-gel fluorescence, powder samples, set 2 (AID 463142). Type of test: functional.
The target of test [15] is Phosphoethanolamine/phosphocholine phosphatase (Homo sapiens, UniProt Q8TCT1). Nature of the test: SAR assay for compounds that inhibit PHOSPHO1. [Related pubchem assays (depositor defined):AID1545, AID1565, AID1574].
The next test concerns the target Phosphomannomutase 2 (Homo sapiens, UniProt O15305). Nature of the test: Counter screen SAR assay for PMM2 inhibitors via a fluorescence intensity assay. [Related pubchem assays (depositor defined):AID1545, AID1574].
The target in test [16] is T5, Mannose-6-phosphate isomerase (Homo sapiens, UniProt P34949).
T5 sequence (P34949 whole entry): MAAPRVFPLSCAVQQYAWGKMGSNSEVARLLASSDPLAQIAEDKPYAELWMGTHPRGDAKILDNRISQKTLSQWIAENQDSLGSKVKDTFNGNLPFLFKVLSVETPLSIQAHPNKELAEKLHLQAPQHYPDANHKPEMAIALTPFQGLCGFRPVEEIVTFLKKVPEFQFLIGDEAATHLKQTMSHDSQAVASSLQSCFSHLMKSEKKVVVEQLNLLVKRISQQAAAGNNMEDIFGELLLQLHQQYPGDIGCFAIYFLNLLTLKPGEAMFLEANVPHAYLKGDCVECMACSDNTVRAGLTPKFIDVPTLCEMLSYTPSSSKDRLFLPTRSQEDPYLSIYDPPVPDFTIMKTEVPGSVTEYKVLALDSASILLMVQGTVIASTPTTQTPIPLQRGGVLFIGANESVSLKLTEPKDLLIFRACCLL
Nature of the test: PMI enzyme inhibitors, confirmation, biochemical, fluorescence intensity (AID 1535).

Activity calls are given as the source filed them.

Sequence of Nonstructural protein 1 (Q194T2 whole entry): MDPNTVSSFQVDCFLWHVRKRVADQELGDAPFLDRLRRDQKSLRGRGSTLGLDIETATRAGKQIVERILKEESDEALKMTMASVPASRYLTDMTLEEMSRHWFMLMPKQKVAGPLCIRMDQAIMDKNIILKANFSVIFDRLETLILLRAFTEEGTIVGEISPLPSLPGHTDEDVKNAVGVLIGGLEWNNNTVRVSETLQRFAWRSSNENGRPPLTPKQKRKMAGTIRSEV
Sequence of Phosphomannomutase 2 (O15305 whole entry): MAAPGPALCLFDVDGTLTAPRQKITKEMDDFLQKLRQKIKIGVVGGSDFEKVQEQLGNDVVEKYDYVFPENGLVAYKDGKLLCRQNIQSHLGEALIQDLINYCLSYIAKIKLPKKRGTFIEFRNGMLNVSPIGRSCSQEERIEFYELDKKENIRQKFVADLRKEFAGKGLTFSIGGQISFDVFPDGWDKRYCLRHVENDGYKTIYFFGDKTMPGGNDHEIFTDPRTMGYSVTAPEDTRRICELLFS
Sequence of Phospholipase A2 (P04054 whole entry): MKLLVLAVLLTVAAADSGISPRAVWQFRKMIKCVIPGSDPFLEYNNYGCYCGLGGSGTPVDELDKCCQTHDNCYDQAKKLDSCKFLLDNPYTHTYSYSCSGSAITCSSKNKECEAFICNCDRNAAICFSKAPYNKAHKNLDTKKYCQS
Sequence of Phosphoethanolamine/phosphocholine phosphatase (Q8TCT1 whole entry): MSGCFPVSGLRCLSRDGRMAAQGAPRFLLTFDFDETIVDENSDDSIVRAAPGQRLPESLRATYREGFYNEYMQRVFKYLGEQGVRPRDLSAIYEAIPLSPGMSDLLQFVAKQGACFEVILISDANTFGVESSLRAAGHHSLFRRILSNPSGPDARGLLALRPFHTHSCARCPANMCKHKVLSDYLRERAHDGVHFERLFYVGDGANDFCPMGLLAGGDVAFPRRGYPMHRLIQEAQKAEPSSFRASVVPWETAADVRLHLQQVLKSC
Sequence of ORF 73 (O40947 whole entry): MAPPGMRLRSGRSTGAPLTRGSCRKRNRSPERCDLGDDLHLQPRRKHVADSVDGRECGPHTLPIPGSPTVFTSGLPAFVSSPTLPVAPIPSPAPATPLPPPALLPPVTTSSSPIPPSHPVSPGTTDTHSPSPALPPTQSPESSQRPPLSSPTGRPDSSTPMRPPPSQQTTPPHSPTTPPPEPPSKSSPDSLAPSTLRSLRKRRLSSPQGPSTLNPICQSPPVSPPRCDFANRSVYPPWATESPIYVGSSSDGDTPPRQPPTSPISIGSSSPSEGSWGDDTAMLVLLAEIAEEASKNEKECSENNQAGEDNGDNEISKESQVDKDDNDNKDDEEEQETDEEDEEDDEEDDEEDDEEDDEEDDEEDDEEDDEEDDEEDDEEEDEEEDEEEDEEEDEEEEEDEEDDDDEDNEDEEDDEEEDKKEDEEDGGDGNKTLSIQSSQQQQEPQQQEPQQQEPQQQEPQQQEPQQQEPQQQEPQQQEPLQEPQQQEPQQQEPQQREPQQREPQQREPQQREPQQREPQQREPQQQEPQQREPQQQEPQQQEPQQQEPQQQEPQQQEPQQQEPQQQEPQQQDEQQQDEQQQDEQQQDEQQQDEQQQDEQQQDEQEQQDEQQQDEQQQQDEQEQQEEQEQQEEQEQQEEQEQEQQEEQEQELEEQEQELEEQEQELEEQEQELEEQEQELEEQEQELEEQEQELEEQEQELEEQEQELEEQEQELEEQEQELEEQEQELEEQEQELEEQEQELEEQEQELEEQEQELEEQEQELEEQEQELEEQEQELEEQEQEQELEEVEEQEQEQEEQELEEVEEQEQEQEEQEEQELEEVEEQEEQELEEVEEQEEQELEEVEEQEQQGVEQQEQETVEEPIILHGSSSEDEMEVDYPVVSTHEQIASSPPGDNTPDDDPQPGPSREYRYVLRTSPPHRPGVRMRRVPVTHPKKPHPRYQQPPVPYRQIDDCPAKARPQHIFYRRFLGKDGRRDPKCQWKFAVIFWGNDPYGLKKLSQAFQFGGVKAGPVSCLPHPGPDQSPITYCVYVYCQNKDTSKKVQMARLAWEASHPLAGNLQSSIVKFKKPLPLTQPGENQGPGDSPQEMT
Sequence of Glutathione-S-transferase (Q26513 whole entry): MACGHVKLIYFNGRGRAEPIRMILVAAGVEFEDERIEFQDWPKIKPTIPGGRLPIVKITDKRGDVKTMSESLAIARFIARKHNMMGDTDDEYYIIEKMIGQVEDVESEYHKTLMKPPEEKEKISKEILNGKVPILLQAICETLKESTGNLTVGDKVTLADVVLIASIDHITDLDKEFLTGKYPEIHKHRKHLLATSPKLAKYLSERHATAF
Sequence of Glutathione S-transferase omega-1 (P78417 whole entry): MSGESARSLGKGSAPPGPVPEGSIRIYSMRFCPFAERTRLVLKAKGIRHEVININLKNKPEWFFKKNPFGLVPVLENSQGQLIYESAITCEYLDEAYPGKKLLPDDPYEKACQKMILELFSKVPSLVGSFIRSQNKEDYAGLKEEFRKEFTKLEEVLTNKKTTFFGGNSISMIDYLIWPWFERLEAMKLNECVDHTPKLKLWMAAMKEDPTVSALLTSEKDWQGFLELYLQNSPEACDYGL
Sequence of Potassium voltage-gated channel subfamily KQT member 2 (O88943 whole entry): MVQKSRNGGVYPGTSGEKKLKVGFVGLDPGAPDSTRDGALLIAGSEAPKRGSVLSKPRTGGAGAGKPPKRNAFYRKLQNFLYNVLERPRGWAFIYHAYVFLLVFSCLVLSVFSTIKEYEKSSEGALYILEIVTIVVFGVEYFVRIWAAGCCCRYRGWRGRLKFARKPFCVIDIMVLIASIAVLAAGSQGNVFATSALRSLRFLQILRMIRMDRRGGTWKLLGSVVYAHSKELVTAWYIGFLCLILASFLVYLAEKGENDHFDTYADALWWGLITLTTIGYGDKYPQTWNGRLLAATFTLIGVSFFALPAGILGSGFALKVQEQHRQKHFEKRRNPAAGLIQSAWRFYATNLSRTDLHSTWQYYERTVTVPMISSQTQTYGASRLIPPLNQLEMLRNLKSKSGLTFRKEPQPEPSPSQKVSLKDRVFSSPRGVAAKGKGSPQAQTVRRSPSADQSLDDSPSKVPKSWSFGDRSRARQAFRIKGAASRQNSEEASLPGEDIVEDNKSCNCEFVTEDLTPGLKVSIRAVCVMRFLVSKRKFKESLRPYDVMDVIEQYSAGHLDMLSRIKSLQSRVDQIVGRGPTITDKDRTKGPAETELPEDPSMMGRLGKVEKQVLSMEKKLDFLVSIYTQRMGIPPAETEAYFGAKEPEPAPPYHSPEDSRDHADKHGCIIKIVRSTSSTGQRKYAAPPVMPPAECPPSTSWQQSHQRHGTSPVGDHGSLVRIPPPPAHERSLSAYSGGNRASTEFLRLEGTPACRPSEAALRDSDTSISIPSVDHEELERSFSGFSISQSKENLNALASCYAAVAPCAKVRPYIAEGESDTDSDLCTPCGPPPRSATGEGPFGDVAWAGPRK
Sequence of G-protein coupled receptor 55 (Q9Y2T6 whole entry): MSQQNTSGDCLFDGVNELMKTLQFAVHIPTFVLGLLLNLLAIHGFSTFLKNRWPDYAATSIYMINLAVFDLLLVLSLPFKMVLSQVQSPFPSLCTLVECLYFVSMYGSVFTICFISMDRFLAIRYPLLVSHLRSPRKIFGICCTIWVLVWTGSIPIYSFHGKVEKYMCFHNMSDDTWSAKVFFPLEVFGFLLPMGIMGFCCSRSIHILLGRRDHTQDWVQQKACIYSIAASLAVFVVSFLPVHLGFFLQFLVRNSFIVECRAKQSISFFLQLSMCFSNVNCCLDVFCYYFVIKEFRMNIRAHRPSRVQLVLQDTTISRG

In the case of `N=C(N)c1ccc(/N=N/c2c(O)ccc3c2[nH]c2ccccc23)cc1`, the half-maximal inhibitory concentration (IC50) is 9.6 µM (active) on Phospholipase A2; 8.6 µM (active) on Troponin, cardiac muscle; 5.61 µM (active) on Cysteine protease ATG4B; 2.48 µM (active) in test [5]; 6.65 µM (active) at Nonstructural protein 1; 12.7 µM (active) in [6]. For the same compound, the CC50 in test [1] is 12.5 µM (active); in test [3] it was 67.4 µM (active). Further, the concentration at half-maximal activity (AC50) was 1.31 µM (active) in test [2] and 2.15 µM (active) in [4].
For `Cc1ccc(NC(=O)Nc2cccnc2)cc1C`, the EC50 in test [7] is 13.4 µM (active).
Consider `O=C(c1ccco1)N1CCN(c2ncnc3c2nnn3Cc2ccccc2Cl)CC1`, for which the EC50 in test [8] was 13.7 µM (inactive).
Turning to `NC(S)=NN=Cc1ccc(-c2ccc(S(=O)(=O)Nc3ncccn3)cc2)o1`, the AC50 is 97.3 µM (active) at ORF 73 and 15.3 µM (active) in [9].
Regarding `COc1ccc(N(C(=O)CCl)C(C(=O)NCCc2ccccc2)C(C)C)cc1Cl` (configuration not stated), the half-maximal activity concentration (AC50) in test [10] is 1.3 µM (active); in test [11] it was 1.81 µM (active); in test [12], 0.887 µM (active); in [13], 0.895 µM (active).
With `O=C(CCl)N(CCCCNC(=O)C(F)(F)F)c1ccc([N+](=O)[O-])cc1`, the IC50 in test [14] is 0.012 µM (active).
With `O=c1c2ccc(F)cc2sn1-c1cc(Cl)c(Cl)cc1Cl`, the IC50 is 0.563 µM (active) in test [15], > 100 µM (inactive) at Phosphomannomutase 2 and > 50 µM (inactive) in [16].

One may read the IC50 as the point on the concentration scale where inhibition reaches its midpoint. The CC50 is the concentration that lowers cell viability or growth by half. One may read the AC50 as the concentration giving half of the maximal activity seen. As usually defined, the EC50 is the concentration that produces a half-maximal response.

The values are drawn from ChEMBL document CHEMBL1201862, “PubChem BioAssay data set” (2004).
